“Also recorded” adds a separate entry of the source.

Holding throughout (type): cell-based
Test [1] has as its system mouse motor neuron (MN) survival. In words: Co-culture of patient iAstrocytes with mouse Hb9-GFP motor neurons: MN survival. As to conditions: for mouse Hb9GFP+ motor neuron rescue: percentage of motor neuron survival: FIG. 4, 10uM, 3 days after administration, compared to vehicle (DMSO), sALS, SOD1, C9orf72 iAstrocytes. As to the method: Induced astrocytes from control or ALS patients were used in a co-culture assay to determine their effect on mouse motor neuron (MN) survival. Mouse embryonic stem cell-derived motor neurons expressing green fluorescence protein (GFP) under the control of the HB9 promoter were sorted and added to iAstrocytes from patients and controls. […] The survival of mouse MNs was monitored on Day 1 and 3 with confocal image acquisition.
The MN survival on Day 3 was evaluated as a percentage of survived MN cells observed on Day 1.

A further test relates to induced MN cells. Nature of the test: Co-culture of iAstrocytes with human induced motor neurons from the same donors: MN survival. The note with it: for MN survival on Day 3: 10 μM. As to the method:
Induced Astrocytes from healthy controls or ALS patients were also used in a co-culture assay to determine their effect on the survival of induced MN cells from the same healthy controls or ALS patients.
The preparation of iAstrocytes and induced MN cells has been described in Example 1. […] The MN survival on Day 3 was evaluated as a percentage of survived MN cells observed on Day 1.

The test system of a further test is misfolded SOD1. In words: Misfolded SOD1 immunocytochemistry (B8H10 antibody) in human iAstrocytes. As to conditions: for SOD1 misfolding in human iAstrocytes: FIGS. 7 and 8 legends, iAstrocytes from controls and C9orf72, SOD1, sporadic ALS patients; for misfolded SOD1 positive cells: 10 μM, 24 hours. As to the method: The preparation of iAstrocytes has been described in Example 1. At Day 5, the 96 well plate was coated with fibronectin diluted 1:400 in PBS and allowed to set for cell adhesion. iAstrocytes were first washed in an appropriate volume of PBS before incubating for 5 min at 37° C. in lml of accutase. The accutase was neutralized in an appropriate volume of iAstrocyte medium and cells were collected in a 15 ml falcon and centrifuged at 200g for 4 min to form a pellet. The pellet was resuspended in an appropriate volume of medium and the cells were counted using a Burker hemocytometer. The cells were seeded at the desired density and were left for 24 hours to adhere. […]
At Day 7, iAstrocytes were fixed in 4% PFA. These were then stained with misfolded SOD1 antibody (B8H10), CD44 to identify cell area and DAPI. Columbus analysis software was used to quantify immunocytochemistry images. In each condition, the number of nuclei was established. In astrocytes stained for misfolded SOD1 protein aggregates, the number, intensity and area of misfolded SOD1 aggregates within the nucleus and surrounding perinuclear area were quantified as well as the percentage of cells positive for misfolded SOD1 accumulation.

Where [2] appears, read: iAstrocytes from three ALS patients with C9orf72 mutation, mouse MNs.
[3] abbreviates: iAstrocytes and induced MNs from ALS patient with C9orf72 mutation.

In the case of `CN1CCc2cccc3c2[C@@H]1Cc1ccc(O)c(O)c1-3` [(6aS)-6-methyl-5,6,6a,7-tetrahydro-4H-dibenzo[de,g]quinoline-10,11-diol], the “mouse Hb9GFP+ motor neuron rescue: percentage of motor neuron survival” value in test [1] is “increase in percentage of motor neuron survival”. In addition, the “MN survival on Day 3 (percentage of survived MN cells observed on Day 1)” value in test [1] (iAstrocytes from ALS patients with C9orf72 mutation, mouse MNs, untreated no more than 33%) is “up to 38%”. Moreover, the “survival of MN cells on Day 3” value is recorded as “most significant improvement” in test [1] (iAstrocytes from ALS patients with SOD1 mutation, mouse MNs) and “significantly improved” in test [1] (setting [2]). Also, the “MN survival on Day 3” value in the test on induced MN cells (setting [3]) is listed as “the most significant outcome”; with induced MN cells (iAstrocytes and induced MNs from sALS patients), “beneficial at reducing toxicity caused by iAstrocytes from some sporadic patients over others”. Also, in the test on induced MN cells (iAstrocytes and induced MNs from ALS patient with SOD1 mutation), the “toxicity of astrocytes to MN cells (MN survival on Day 3)” value is “most effectively dampened the toxicity of SOD1-derived astrocytes”. The “percentage of misfolded SOD1 perinuclear aggregates (DMSO = 100%)” value with misfolded SOD1 (FIG. 9, 10uM, 48 hours, iAstrocytes of sALS, SOD1, C9orf72 patients and controls, listed as (6a5)-6-methyl-5,6,6a,7-tetrahydro-4H-dibenzo[de,g]quinoline-10,11-diol) is on record as “reduction of misfolded SOD1 in all patient lines treated; also recorded: significant reduction in misfolded SOD1 in 6 different patient lines”. For the same compound, the “SOD1 misfolding in human iAstrocytes” value in the test on misfolded SOD1 was “Reduced SOD1 misfolding”. In addition, the “misfolded SOD1 positive cells” value in the test on misfolded SOD1 (SOD1 astrocytes compared with other cell types) is “greatest decrease in SOD1 astrocytes”; in the test with misfolded SOD1 (all cell types (control, C9orf72, SOD1, sporadic iAstrocytes)) it was “reduction of misfolded SOD1 positive cells across all cell types”.
With `C=C1CC[C@@H]2[C@](C)(CO)[C@H](O)CC[C@@]2(C)[C@@H]1C/C=C1/C(=O)OC[C@H]1O` [andrographolide, reference compound], the “mouse Hb9GFP+ motor neuron rescue: percentage of motor neuron survival” value in test [1] is given as “increase in percentage of motor neuron survival”. Moreover, the “survival of MN cells on Day 3” value is listed as “significantly improved” in test [1] (setting [2]) and “most significantly improved” in test [1] (iAstrocytes from three sporadic ALS (sALS) patients, mouse MNs). The “MN survival on Day 3” value in the test on induced MN cells (setting [3]) is given as “the most significant outcome”. In addition, in the test with misfolded SOD1, the “SOD1 misfolding in human iAstrocytes” value is “Reduced SOD1 misfolding”.
As to `Nc1nc2ccc(OC(F)(F)F)cc2s1` [riluzole, reference compound], the “SOD1 misfolding in human iAstrocytes” value in the test on misfolded SOD1 is “Reduced SOD1 misfolding”.

The values above are taken from patent US20210353613A1, “TREATMENT OF NEUROLOGICAL DISEASE” (Aclipse One Inc., priority 2018, published 2021).
